Measured values published in patent publication US9453038B2, “Glucokinase activator compounds, compositions containing such compounds, and methods of treatment” (Merck Sharp & Dohme Corp., priority 2012, dated 2016).
Read-outs that look alike come from different tables or passages of the source.

Target: Recombinant human liver glucokinase (FLAG fusion protein) (Homo sapiens (Human), UniProt P35557)
Test: glucokinase (GK) activation assay, Thio-NADH formation coupled to G6PDH, absorbance at 405 nm
Format: biochemical
Conditions: 2.5 mM Glu; for EC50: 30° C.; for Emax: OD value of DMSO control regarded as 100%
Text: The glucokinase activity can, for instance, be determined without directly measuring glucose-6-phosphate by measuring the amount of Thio-NADH generated during the production of phosphogluconolactone from glucose-6-phosphate by a reporter enzyme glucose-6-phosphate dehydrogenase.
To test the exemplified compounds, the following assay was employed. Recombinant human liver glucokinase was expressed as a FLAG fusion protein in E. coli, and purified on ANTIFLAG M2 AFFINITY GEL (Sigma). The assay was carried out at 30° C. in a 96-well plate. In the plate was distributed 69 μl each of assay buffer (25 mM Hepes Buffer: pH=7.2, 2 mM MgCl2, 1 mM ATP, 0.5 mM TNAD, 1 mM dithiothreitol), to which was added 1 μl of a DMSO solution of the compound or DMSO as control. Then, 20 μl of pre-ice-cooled enzyme mixture (FLAG-GK, 20 U/ml G6PDH) was distributed thereto, to which was added 10 μl of 25 mM glucose as substrate to initiate the reaction (final glucose concentration=2.5 mM). After starting the reaction, the absorbance at 405 nm was measured every 30 seconds for 10 minutes to evaluate the compound based on the initial increase for 5 minutes. FLAG-GK was added so that the increase of absorbance after 5 minutes fell between 0.05 to 0.1 in the presence of 1% DMSO.
The OD values of the respective compounds were measured in the respective concentrations, wherein the OD value of DMSO as control is regarded as 100%. From the OD values at the respective concentrations, Emax (%, 2.5 mM Glu) and EC50 (nM, 2.5 mM Glu) were calculated and used as indicators of the GK activation capability of the compounds. According to the above assay, the GK activation capability of the exemplified compounds of the present invention was determined. […] Where different enantiomers of the same compound were tested, two numbers are provided. Where 3 numbers are provided, for example, Ex. #30, data for the racemic form is also shown.

Sequence of Recombinant human liver glucokinase (FLAG fusion protein) (P35557 other isoform, or with tags, fused parts or gaps): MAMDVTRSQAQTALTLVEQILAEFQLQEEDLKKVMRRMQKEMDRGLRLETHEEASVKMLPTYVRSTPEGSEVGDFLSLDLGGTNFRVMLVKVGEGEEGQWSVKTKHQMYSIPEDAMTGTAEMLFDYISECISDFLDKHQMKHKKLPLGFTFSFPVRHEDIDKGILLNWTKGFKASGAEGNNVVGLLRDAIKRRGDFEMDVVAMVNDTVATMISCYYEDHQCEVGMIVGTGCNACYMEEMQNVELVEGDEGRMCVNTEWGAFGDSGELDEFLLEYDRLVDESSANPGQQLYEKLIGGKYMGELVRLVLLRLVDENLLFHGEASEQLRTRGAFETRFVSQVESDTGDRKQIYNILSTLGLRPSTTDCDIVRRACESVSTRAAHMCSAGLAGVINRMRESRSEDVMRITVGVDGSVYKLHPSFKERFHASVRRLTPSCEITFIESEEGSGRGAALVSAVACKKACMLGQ

| EC50 | Emax (read-out: Emax) | Emax | SMILES |
| --- | --- | --- | --- |
| 1.9 nM | 624% | – | CCS(=O)(=O)c1ccc(Oc2cc3cc(-c4ccc(CCC(=O)OC)cn4)[nH]c3cc2C2CCC(=O)N2C)cc1 (stereo not drawn) [Example 1, METHYL 3-(6-{5-[4-(ETHYLSULFONYL)PHENOXY]-6-(1-METHYL-5-OXOPYRROLIDIN-2-YL)-1H-INDOL-2-YL}PYRIDIN-3-YL)PROPANOATE] |
| 53.4 nM | 652% | – | CCS(=O)(=O)c1ccc(Oc2cc3cc(-c4ccc(CCC(=O)O)cn4)[nH]c3cc2C2CCC(=O)N2C)cc1 (stereo not drawn) [Example 2, 3-(6-{5-[4-(ETHYLSULFONYL)PHENOXY]-6-(1-METHYL-5-OXOPYRROLIDIN-2-YL)-1H-INDOL-2-YL}PYRIDIN-3-YL)PROPANOIC ACID] |
| 797 nM | 628% | – | CCS(=O)(=O)c1ccc(Oc2cc3cc(-c4ccc(C(F)(F)F)cn4)[nH]c3cc2C2CCC(=O)N2CC(=O)O)cc1 (stereo not drawn) [Example 3, (2-{5-[4-(ETHYLSULFONYL)PHENOXY]-2-[5-(TRIFLUOROMETHYL)PYRIDIN-2-YL]-1H-INDOL-6-YL}-5-OXOPYRROLIDIN-1-YL)ACETIC ACID] |
| – | 455% | 453.8% | COC(=O)CCc1ccc(Oc2cc3cc(-c4ccc(C(F)(F)F)cn4)[nH]c3cc2C2CCC(=O)N2C)cc1 (stereo not drawn) [Example 4, METHYL 3-[4-({6-(1-METHYL-5-OXOPYRROLIDIN-2-YL)-2-[5-(TRIFLUORO-METHYL)PYRIDIN-2-YL]-1H-INDOL-5-YL}OXY)PHENYL]PROPIONATE] |
| 774 nM | 15.7% | – | CS(=O)(=O)c1ccc(Oc2cc3cc(-c4ccc(CCC(=O)O)cn4)[nH]c3cc2Oc2ccccc2F)cc1 [Example 7, 3-(6-{6-(2-FLUOROPHENOXY)-5-[4-(METHYLSULFONYL)PHENOXY]-1H-INDOL-2-YL}PYRIDIN-3-YL)PROPANOIC ACID] |
| 116 nM | 501% | – | CN1C(=O)CCC1c1cc2[nH]c(-c3ccc(C(=O)NCCC(=O)O)cn3)cc2cc1Oc1ccc(S(C)(=O)=O)nc1 (stereo not drawn) [Example 8, N-({6-[6-(1-METHYL-5-OXOPYRROLIDIN-2-YL)-5-{[6-(METHYL-SULFONYL)PYRIDIN-3-YL]OXY}-1H-INDOL-2-YL]PYRIDIN-3-YL}-CARBONYL)-β-ALANINE] |
| 533 nM | – | – | CS(=O)(=O)c1ccc(Oc2cc3cc(-c4ccc(CCC(=O)O)cn4)[nH]c3nc2CN2CCCC2=O)cn1 [Example 9, 3-[6-(5-{[6-(METHYLSULFONYL)PYRIDIN-3-YL]OXY}-6-[(2-OXOPYRROLIDIN-1-YL)METHYL]-1H-PYRROLO[2,3-B]PYRIDIN-2-YL)PYRIDIN-3-YL]PROPANOIC ACID] |
| 13.9 nM | 419% | – | COC(=O)CCc1ccc(-c2cc3cc(Oc4ccc(C(=O)N5CCC5)nc4)c(C4CCCN4C(C)=O)cc3[nH]2)nc1 (stereo not drawn) [Example 10, METHYL 3-{6-[6-(1-ACETYLPYRROLIDIN-2-YL)-5-{[6-(AZETIDIN-1-YLCARBONYL)PYRIDIN-3-YL]OXY}-1H-INDOL-2-YL]PYRIDIN-3-YL}PROPANOATE] |
| 187 nM | 410% | – | CC(=O)N1CCCC1c1cc2[nH]c(-c3ccc(CCC(=O)O)cn3)cc2cc1Oc1ccc(C(=O)N2CCC2)nc1 (stereo not drawn) [Example 11, 3-{6-[6-(1-ACETYLPYRROLIDIN-2-YL)-5-{[6-(AZETIDIN-1-YLCARBONYL)PYRIDIN-3-YL]OXY}-1H-INDOL-2-YL]PYRIDIN-3-YL}PROPANOIC ACID] |
| 53.6 nM | 614% | – | CCS(=O)(=O)c1ccc(Oc2cc3cc(-c4ccc(P(C)(=O)O)cn4)[nH]c3cc2C2CCC(=O)N2C)cc1 (stereo not drawn) [Example 12, (6-(5-(4-(ETHYLSULFONYL)PHENOXY)-6-(1-METHYL-5-OXOPYRROLIDIN-2-YL)-1H-INDOL-2-YL)PYRIDIN-3-YL)(METHYL)PHOSPHINIC ACID] |
| 108 nM | 643% | – | CN1C(=O)CCC1c1cc2[nH]c(-c3ccc(CC(C)(C)C(=O)O)cn3)cc2cc1Oc1ccc(S(C)(=O)=O)nc1 (stereo not drawn) [Example 17, 2,2-dimethyl-3-(6-(6-(1-methyl-5-oxopyrrolidin-2-yl)-5-((6-(methylsulfonyl)pyridin-3-yl)oxy)-1H-indol-2-yl)pyridin-3-yl)propanoic acid] |
